{"source": "paper PMC4774911", "about": "“Biochemical Screening of Five Protein Kinases from Plasmodium falciparum against 14,000 Cell-Active Compounds” (PLoS ONE, 2016)", "assay_in_all_cases": "biochemical", "key": {"[1]": {"molecular_target": "CDK2 (Homo sapiens, UniProt P24941)"}, "[2]": {"molecular_target": "T1, STRADA (Homo sapiens, UniProt Q7RTN6)", "T1 sequence (Q7RTN6 1-431)": "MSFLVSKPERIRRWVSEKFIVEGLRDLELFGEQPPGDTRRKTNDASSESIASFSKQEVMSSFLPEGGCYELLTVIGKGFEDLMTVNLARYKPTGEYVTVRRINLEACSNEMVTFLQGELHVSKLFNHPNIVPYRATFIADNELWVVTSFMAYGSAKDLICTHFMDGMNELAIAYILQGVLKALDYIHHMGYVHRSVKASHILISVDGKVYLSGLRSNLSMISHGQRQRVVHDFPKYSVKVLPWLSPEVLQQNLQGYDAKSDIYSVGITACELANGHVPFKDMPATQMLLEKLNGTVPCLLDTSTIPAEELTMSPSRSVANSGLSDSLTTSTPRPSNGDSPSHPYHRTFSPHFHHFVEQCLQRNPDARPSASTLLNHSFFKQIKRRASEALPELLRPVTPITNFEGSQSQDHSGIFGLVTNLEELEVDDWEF"}, "[3]": {"molecular_target": "PRKACB (Homo sapiens, UniProt P22694)"}, "[4]": {"molecular_target": "T2, PLK4 (Homo sapiens, UniProt O00444)", "T2 sequence (O00444 1-970)": "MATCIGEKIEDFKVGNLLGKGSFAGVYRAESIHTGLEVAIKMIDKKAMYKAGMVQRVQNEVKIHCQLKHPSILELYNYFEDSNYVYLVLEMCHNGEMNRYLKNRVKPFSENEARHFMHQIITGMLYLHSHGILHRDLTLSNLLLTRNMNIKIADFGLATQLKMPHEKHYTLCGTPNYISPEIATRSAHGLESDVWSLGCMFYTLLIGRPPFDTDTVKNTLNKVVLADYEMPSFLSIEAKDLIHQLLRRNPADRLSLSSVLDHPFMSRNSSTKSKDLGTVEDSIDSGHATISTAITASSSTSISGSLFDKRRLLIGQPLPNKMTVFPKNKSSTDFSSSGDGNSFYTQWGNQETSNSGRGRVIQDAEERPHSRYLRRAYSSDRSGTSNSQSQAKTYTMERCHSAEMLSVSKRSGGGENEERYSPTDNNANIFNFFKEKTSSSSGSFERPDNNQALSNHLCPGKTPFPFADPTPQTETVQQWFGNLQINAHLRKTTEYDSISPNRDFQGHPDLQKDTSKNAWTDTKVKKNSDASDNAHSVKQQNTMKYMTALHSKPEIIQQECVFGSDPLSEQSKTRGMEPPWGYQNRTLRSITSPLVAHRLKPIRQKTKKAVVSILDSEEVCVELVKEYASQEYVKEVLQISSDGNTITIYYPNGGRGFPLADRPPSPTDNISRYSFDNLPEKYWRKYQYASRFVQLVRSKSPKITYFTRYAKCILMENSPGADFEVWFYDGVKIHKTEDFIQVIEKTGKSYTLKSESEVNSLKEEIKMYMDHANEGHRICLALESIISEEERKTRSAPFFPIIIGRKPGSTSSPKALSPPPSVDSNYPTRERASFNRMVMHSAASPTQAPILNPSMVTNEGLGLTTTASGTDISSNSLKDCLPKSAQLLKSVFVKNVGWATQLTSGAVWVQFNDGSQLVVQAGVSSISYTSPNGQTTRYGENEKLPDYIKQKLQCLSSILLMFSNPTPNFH"}, "[5]": {"molecular_target": "T3, NEK9 (Homo sapiens, UniProt Q8TD19)", "T3 sequence (Q8TD19 1-979)": "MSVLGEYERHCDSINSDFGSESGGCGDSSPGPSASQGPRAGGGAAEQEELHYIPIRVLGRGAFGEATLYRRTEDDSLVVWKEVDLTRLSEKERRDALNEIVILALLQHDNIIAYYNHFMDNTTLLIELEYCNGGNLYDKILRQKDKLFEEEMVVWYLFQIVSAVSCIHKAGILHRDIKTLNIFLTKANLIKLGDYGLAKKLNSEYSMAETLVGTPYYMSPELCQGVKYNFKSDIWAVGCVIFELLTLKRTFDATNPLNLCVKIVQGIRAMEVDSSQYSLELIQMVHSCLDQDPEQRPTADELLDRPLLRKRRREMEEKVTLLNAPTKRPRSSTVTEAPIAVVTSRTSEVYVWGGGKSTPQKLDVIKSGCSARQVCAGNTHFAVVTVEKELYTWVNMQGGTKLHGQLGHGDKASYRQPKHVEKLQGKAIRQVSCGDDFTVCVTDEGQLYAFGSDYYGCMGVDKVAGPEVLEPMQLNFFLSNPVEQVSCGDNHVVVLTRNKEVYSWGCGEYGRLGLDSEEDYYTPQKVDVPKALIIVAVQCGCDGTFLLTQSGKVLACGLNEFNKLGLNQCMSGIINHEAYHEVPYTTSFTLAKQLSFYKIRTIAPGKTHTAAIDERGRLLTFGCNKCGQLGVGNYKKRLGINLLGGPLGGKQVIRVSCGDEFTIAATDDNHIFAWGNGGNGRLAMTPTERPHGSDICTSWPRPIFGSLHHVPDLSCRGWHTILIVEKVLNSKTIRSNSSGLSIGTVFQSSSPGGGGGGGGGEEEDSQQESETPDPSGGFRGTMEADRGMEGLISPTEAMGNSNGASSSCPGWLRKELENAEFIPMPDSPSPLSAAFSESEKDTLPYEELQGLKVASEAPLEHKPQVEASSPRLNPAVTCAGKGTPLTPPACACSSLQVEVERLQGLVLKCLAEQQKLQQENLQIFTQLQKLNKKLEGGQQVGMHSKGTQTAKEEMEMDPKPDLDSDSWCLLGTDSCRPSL"}, "[6]": {"molecular_target": "T4, ADCK1 (Homo sapiens, UniProt Q86TW2)", "T4 sequence (Q86TW2 1-530)": "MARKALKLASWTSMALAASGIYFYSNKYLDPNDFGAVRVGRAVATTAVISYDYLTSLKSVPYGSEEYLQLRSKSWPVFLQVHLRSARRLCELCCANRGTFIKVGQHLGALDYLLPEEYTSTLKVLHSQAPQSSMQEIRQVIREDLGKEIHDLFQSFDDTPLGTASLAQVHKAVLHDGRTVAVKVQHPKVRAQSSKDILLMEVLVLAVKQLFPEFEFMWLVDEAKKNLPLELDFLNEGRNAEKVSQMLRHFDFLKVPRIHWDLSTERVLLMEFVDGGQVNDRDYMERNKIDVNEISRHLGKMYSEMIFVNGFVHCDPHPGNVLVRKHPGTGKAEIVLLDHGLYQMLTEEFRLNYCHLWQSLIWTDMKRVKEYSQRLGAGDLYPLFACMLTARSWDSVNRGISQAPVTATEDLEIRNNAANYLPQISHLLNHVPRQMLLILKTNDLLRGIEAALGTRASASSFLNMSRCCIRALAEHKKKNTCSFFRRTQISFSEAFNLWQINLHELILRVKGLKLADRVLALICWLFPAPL"}}, "note": "Several values for one entry are separate records, joined by “and”; a condition that tells them apart may be missing. Equal values may be shown once."}
{"smiles": "CN1CCN(c2ccc(Nc3ncc(C#N)c(Nc4ccccc4C(N)=O)n3)cc2)CC1.Cl", "note": "[TCMDC-134116]", "values": [{"measurement": "IC50", "setting": "[1]", "value": "360 nM and 350 nM"}, {"measurement": "IC50", "setting": "[2]", "value": "> 20", "unit": "µM"}, {"measurement": "IC50", "setting": "[3]", "value": 6.3, "unit": "µM"}, {"measurement": "IC50", "setting": "[4]", "value": "210 nM and 270 nM"}, {"measurement": "IC50", "setting": "[5]", "value": "770 nM and 580 nM"}, {"measurement": "IC50", "setting": "[6]", "value": 1000, "unit": "nM"}]}
{"smiles": "Cl.NCC1(c2nc(-c3ccc(Cl)c(O)c3)c(-c3ccncc3)[nH]2)CCCCC1", "note": "[TCMDC-141154]", "values": [{"measurement": "IC50", "setting": "[1]", "value": "> 20000", "unit": "nM"}, {"measurement": "IC50", "setting": "[2]", "value": "> 20", "unit": "µM"}, {"measurement": "IC50", "setting": "[3]", "value": 0.89, "unit": "µM"}, {"measurement": "IC50", "setting": "[4]", "value": "> 20000", "unit": "nM"}, {"measurement": "IC50", "setting": "[5]", "value": "> 20000", "unit": "nM"}, {"measurement": "IC50", "setting": "[6]", "value": "> 20000", "unit": "nM"}]}
{"smiles": "CN(C)CC(O)COc1ccc(Nc2ncc([N+](=O)[O-])c(Nc3ccccc3O)n2)cc1.O=C(O)C(F)(F)F", "note": "(stereo not drawn) [TCMDC-141399]", "values": [{"measurement": "IC50", "setting": "[1]", "value": "> 20000", "unit": "nM"}, {"measurement": "IC50", "setting": "[2]", "value": "> 20", "unit": "µM"}, {"measurement": "IC50", "setting": "[3]", "value": "> 20", "unit": "µM"}, {"measurement": "IC50", "setting": "[4]", "value": "> 20000", "unit": "nM"}, {"measurement": "IC50", "setting": "[5]", "value": "> 20000", "unit": "nM"}, {"measurement": "IC50", "setting": "[6]", "value": 1800, "unit": "nM"}]}
